In patent publication US20080057055A1, “OLD-35 as an inflammatory agent” (priority 2004, published 2008):

Tests used:
IL-6 = assay: Human IL-6 ELISA in culture supernatants; type: cell-based; conditions: HeLa, Ad.hPNPase 50 pfu/cell; plus 20 mM NAC
Excerpt: (§1) Human IL-6 and IL-8 ELISA. The levels of IL-6 and IL-8 were quantified by ELISA in culture supernatants using human IL-6 ELISA kit (Pierce Biotechnology, Rockford, Ill.) and human IL-8 ELISA kit (Pierce), respectively, according to the manufacturer's protocol.

IκBα, p65 = assay: Western blot of cytoplasmic and nuclear extracts; type: cell-based, human; conditions: 20 mM NAC, 2 days post-infection
Protocol: Cell Fractionation. Cells were harvested and the cytoplasm and nucleus were fractionated by the modified Schreiber's method as described (31). Briefly, the cells were washed with PBS and lysed for 10 min in Buffer A (10 mM HEPES pH 7.9, 10 mM KCl, 1.5 mM MgCl2, 1 mM EDTA, 1 mM dithiothreitol, 0.1% Nonidet P-40) containing protease inhibitor cocktail (Roche, Mannheim, Germany). After centrifugation, the supernatant was saved as the cytoplasmic fraction and the pellet containing nuclei was lysed in Buffer B (20 mM HEPES pH 7.9, 400 mM KCl, 20% glycerol, 1 mM EDTA, 1 mM DTT) containing protease inhibitor cocktail (Roche) with one freeze-thaw cycle. After centrifugation the supernatant was collected as the nuclear fraction. Protein concentration was determined by Bio-Rad protein assay kit (Bio-Rad laboratories, Hercules, Calif.).
Preparation of Whole Cell Lysates and Western Blot Analysis. Whole cell lysates were prepared and Western blotting was performed as described (4). Briefly, cells were harvested in RIPA buffer containing protease inhibitor cocktail (Roche, Mannheim, Germany), 1 mM Na3VO4 and 50 mM NaF and centrifuged at 12,000 rpm for 10 min at 4° C. The supernatant was used as total cell lysate. Thirty μg of total cell lysate were used for SDS-PAGE and transferred to a nitrocellulose membrane. […]

HeLa cells = assay: Monitoring ROS production by flow cytometry (HE and DCFH-DA staining); type: cell-based, human; conditions: Ad.hPNPase 50 pfu/cell, plus 20 mM NAC
Protocol: Cell Lines, Reagents and Virus Infection protocol. The human cervical carcinoma cell line HeLa was cultured in Dulbecco's Modified Eagle Medium (DMEM) supplemented with 10% fetal calf serum, penicillin (50 units/ml) and streptomycin (50 μg/ml) at 37° C. in 5% CO2 and 100% relative humidity. N-acetyl-L-cysteine and Tiron were obtained from Sigma (St. Louis, Mo.). The recombinant replication-incompetent adenovirus expressing old-35 (Ad.hPNPase) was created in two steps as described previously and plaque purified by standard procedures (1, 28). Cells were infected with a multiplicity of infection (m.o.i.) of 1 to 50 plaque forming units (pfu)/cell of Ad.vec (control replication-incompetent adenovirus) or Ad.hPNPase as described (29).
Monitoring ROS Production. Cells were stained with 2.5 μM hydroethidine (HE) and 5 μM 5,6-carboxy-2′,7′-dichlorofluorescein diacetate (DCFH-DA) in PBS for 30 min in the dark (32). Immediately after staining the cells were analyzed by flow cytometry (FACScan; Becton Dickinson, Mountain View, Calif.) and data were analyzed using CellQuest software, version 3.1 (Becton Dickinson). The cells were gated to exclude cell debris.

IL-8 = assay: Human IL-8 ELISA in culture supernatants; type: cell-based; conditions: HeLa, Ad.hPNPase 50 pfu/cell; plus 20 mM NAC
Excerpt: as §1

[1] = system: hPNPase^OLD-35 and Myc proteins; assay: Western blot after IFN-β treatment or siRNA; type: cell-based, human
HO-1 cells [2] = assay: Colony formation assay with IFN-β; type: cell-based, human; conditions: HO-1 clones
Protocol: (§2) Transfection of siRNA: Cells (5×10^5) were plated in a 6 cm dish and the next day were transfected with 25 nM of either control siRNA or c-myc siRNA (Ambion; catalogue# 4250) using Lipofectamine 2000 (Invitrogen) according to the Manufacturer's protocol. After 24 h, the cells were trypsinized and seeded into 96-well plates for cell viability assays and 6-cm dishes for colony formation assays and cell cycle analyses as described above.

[3] = system: HO-1, WM-35, MeWo and FM-516 cells; assay: Cell cycle analysis by flow cytometry after IFN-β; type: cell-based, human; conditions: HO-1 clones, IFN-β 1000 U/ml
Protocol: Cell Cycle Analysis: Cells were harvested, washed in PBS and fixed overnight at −20° C. in 70% ethanol. The cells were treated with RNase A (1 mg/ml) at 37° C. for 30 min and then with propidium iodide (50 μg/ml). Cell cycle was analyzed using a FACScan flow cytometer and data were analyzed using CellQuest software (Becton Dickinson, San Jose, Calif.).

c-myc mRNA = assay: Half-life of c-myc mRNA (Actinomycin D, Northern blot); type: cell-based, human; conditions: HO-1 clones expressing the siRNA, compared to control untreated cells
Protocol: RNA Isolation and Northern Blot Analysis: Total RNA was extracted from cells using Qiagen RNeasy mini kit (Qiagen) according to the manufacturer's protocol and Northern blotting was performed as described (102). The cDNA probes used were a 400-bp fragment from human c-myc, a 500-bp fragment from hPNPase^old-35 and full-length human GAPDH.

HO-1 cells [4] = assay: MTT cell viability assay; type: cell-based, human; conditions: HO-1 clones, more pronounced after 6 days
Protocol: as §2

Row | Compound | secreted IL-6 in culture supernatant (IL-6) | degradation of IκBα and nuclear translocation of p65 by Ad.hPNPase^old-35 infection (IκBα, p65) | percentage of high ROS containing cells (HeLa cells; 24 hr) [%] | percentage of high ROS containing cells (HeLa cells; 36 hr) [%] | secreted IL-8 in culture supernatant (IL-8) | inhibition in hPNPase^OLD-35 induction by IFN-β ([1]; HO-1 clone 1 expressing the siRNA, IFN-β 1000 U/ml, 2 days) [%] | ability to downregulate Myc in response to IFN-β ([1]; HO-1 clones 1, 4 and 5 expressing the siRNA) | response of siRNA expressing clones to IFN-β-induced inhibition of colony formation (HO-1 cells [2]) | response of siRNA expressing clones to growth inhibition by IFN-β (cell cycle) [3] | half-life of c-myc mRNA after IFN-β (c-myc mRNA) | response of siRNA expressing clones to IFN-β (MTT) (HO-1 cells [4])
1 | CC(=O)N[C@@H](CS)C(=O)O [NAC, N-acetyl-L-cysteine] | markedly inhibited | inhibited | ~2 | ~3 | markedly inhibited |  |  |  |  |  | 
2 | hPNPase^old-35-siRNA: lentivirus-expressed siRNA for hPNPase^old-35, sequence 5′ AACAAAACCTTCCCCTTCCCA 3′ (SEQ ID NO:40) |  |  |  |  |  | ~100 | lost this ability | significant resistance | remarkable resistance | remained unchanged | significant resistance
